Assay results as given in the NIST ThermoML archive (doi:10.1021/je300146k).
± gives the expanded uncertainty stated by the source.

conditions: 298.15 K; 101.33 kPa; Liquid; Vibrating tube method

Row | Compound | mass density
1 | OCc1ccccc1 [benzenemethanol] | 1043.53 ± 0.29 kg/m3
2 | CCCCCCCCCC [decane] | 726.43 ± 0.26 kg/m3
3 | CCCCCCCCCCCC [dodecane] | 741.54 ± 0.58 kg/m3

Next, values leading:

Row | mass density | Compound
4 | 679.71 ± 0.21 kg/m3 | CCCCCCC [heptane]
5 | 698.76 ± 0.26 kg/m3 | CCCCCCCC [octane]
6 | 759.27 ± 0.26 kg/m3 | CCCCCCCCCCCCCC [tetradecane]
